Results: patent US20240366546A1, “ANTI-HELICOBACTER PYLORI DERIVATIVE CONTAINING DIHYDROSTILBENE PARENT NUCLEUS AND PREPARATION METHOD AND APPLICATION THEREOF” (NANJING UNIVERSITY OF CHINESE MEDICINE, priority 2024, published 2024)
Converted amounts (≈) assume the structure as drawn.

Legend:
Assay type in all cases: cell-based
[1] = system: Helicobacter pylori strain Hp26695; assay: Determination of MIC, broth microdilution, strain Hp26695; details: 72 hours of culture, read-out: Minimum inhibitory concentration against helicobacter pylori Hp26695
Method: (§1) Anti-Helicobacter pylori activity of each compound is evaluated by a broth microdilution method in an activity experiment, and metronidazole, levofloxacin, clarithromycin and vancomycin used in clinic are selected as positive control drugs.
(§2) Helicobacter pylori strains HpG27, Hp159, Hp129 and Hp26695 provided by Professor Hongkai Bi of Nanjing Medical University. Culture mediums and main reagents: Colombian culture mediums, selective antibiotics (metronidazole, levofloxacin and clarithromycin), serum, and the like.
(§3) The strains were taken out of a refrigerator at −80° C. and placed at room temperature, 200 L of standard strains were accurately sucked, transferred to a solid culture medium, and spread with an L-shaped glass rod, a culture dish loaded with the strains was put into a culture bag, then an AnaeroPack was put into the culture bag, and the culture bag was quickly sealed and then put into a constant temperature incubator at 37° C. to culture for 72 hours. After the end of culture, each strain was identified first, then a lawn on the solid culture medium was scraped off, and the lawn was transferred into 50 mL of liquid culture medium to serve as an original bacterial solution.
(§4) • (1) Sample solutions of the compounds 1 to 9 obtained by separation and purification above were prepared according to a concentration of 1 mg/mL. • (2) In preparation of an MIC plate, a first well was added with 176 μL of culture medium and then added with 3.2 μL of antibacterial drug, and dilution was carried out by multiple proportions to a 7th well; and an 8th well was not added with the drug, but was reserved with 90 μL of culture medium to serve as a control with bacteria but no drug. • (3) In preparation of a bacterial solution, Helicobacter pylori growing at a logarithmic phase on a solid plate was made into a bacterial suspension with a BHI culture medium, an OD600 value of concentration of the bacterial suspension was adjusted to be 0.3 (1×10^8 CFU/mL), and the bacterial suspension was diluted by 10 times to reach 1×10^7 CFU/mL for later use. • (4) In inoculation, 10 μL of bacterial solution was added into the 1st to 8th wells (a concentration of the bacterial solution in each well was about 1.0×10^6 CFU/mL). Results were judged after 72 hours of culture. […] The test was only meaningful when the bacteria in the 8th well of the positive control well (without antibiotics) grew obviously. When there was a single drift in a microdilution method, the highest drug concentration capable of inhibiting the growth of bacteria should be recorded. If there were many drifts, the results should not be reported, and the test should be repeated.

[2] = system: Helicobacter pylori strain Hp129; assay: Determination of MIC, broth microdilution, strain Hp129; details: 72 hours of culture, (R) beside control drug values, read-out: Minimum inhibitory concentration against helicobacter pylori Hp129
Method: as §1, §2, §3, §4

[3] = system: Helicobacter pylori strain HpG27; assay: Determination of MIC, broth microdilution, strain HpG27; details: 72 hours of culture, read-out: Minimum inhibitory concentration against helicobacter pylori HpG27
Method: as §1, §2, §3, §4

[4] = system: Helicobacter pylori strain Hp159; assay: Determination of MIC, broth microdilution, strain Hp159; details: 72 hours of culture, (R) beside control drug values, read-out: Minimum inhibitory concentration against helicobacter pylori Hp159
Method: as §1, §2, §3, §4

[5] = system: drug-resistant and sensitive Helicobacter pylori; assay: Determination of MIC, broth microdilution, summary over strains; details: two kinds of drug-resistant and sensitive Helicobacter pylori; range over strains
Method: as §1, §2, §3, §4

Compound | MIC [1] | MIC [2] | MIC [3] | MIC [4] | MIC [5]
CC[C@H]1OC(=O)[C@H](C)[C@@H](O[C@H]2C[C@@](C)(OC)[C@@H](O)[C@H](C)O2)[C@H](C)[C@@H](O[C@@H]2O[C@H](C)C[C@H](N(C)C)[C@H]2O)[C@](C)(OC)C[C@@H](C)C(=O)[C@H](C)[C@@H](O)[C@]1(C)O [CLR, clarithromycin, reference compound] | 0.008 µg/mL (≈ 0.0107 µM) | 1 µg/mL (≈ 1.34 µM) | 0.008 µg/mL (≈ 0.0107 µM) | 2 µg/mL (≈ 2.67 µM) | –
CC(C)=CCc1c(CCc2ccc(O)cc2)cc(O)cc1OC(=O)C(C)C [Compound 1] | 8 µg/mL (≈ 21.7 µM) | 8 µg/mL (≈ 21.7 µM) | 8 µg/mL (≈ 21.7 µM) | 8 µg/mL (≈ 21.7 µM) | 4 to 8 µg/mL (≈ 10.9 to 21.7 µM)
CCC(C)C(=O)Oc1cc(O)cc(CCc2ccc(O)cc2)c1CC=C(C)C (centres unmarked) [Compound 2] | > 16 µg/mL | > 16 µg/mL | > 16 µg/mL | > 16 µg/mL | –
COc1cc(O)c(CC=C(C)C)c(CCc2ccc(O)cc2)c1 [Compound 3, uralensisol I] | 4 µg/mL (≈ 12.8 µM) | 8 µg/mL (≈ 25.6 µM) | 4 µg/mL (≈ 12.8 µM) | 8 µg/mL (≈ 25.6 µM) | 4 to 8 µg/mL (≈ 12.8 to 25.6 µM)
CC(=O)Oc1cc(O)cc(CCc2ccc(O)c(CC=C(C)C)c2)c1CC=C(C)C [Compound 4, uralensisol J] | > 16 µg/mL | > 16 µg/mL | > 16 µg/mL | > 16 µg/mL | –
COc1c(O)cc(CCc2cc(O)cc(OC(C)=O)c2CC=C(C)C)cc1CC=C(C)C [Compound 5, uralensisol K] | > 16 µg/mL | > 16 µg/mL | > 16 µg/mL | > 16 µg/mL | –
CC(C)=CCc1c(O)cc(O)c(CC=C(C)C)c1CCc1ccc(O)cc1 [Compound 6, uralensisol L] | 8 µg/mL (≈ 21.8 µM) | 8 µg/mL (≈ 21.8 µM) | 4 µg/mL (≈ 10.9 µM) | 8 µg/mL (≈ 21.8 µM) | 4 to 8 µg/mL (≈ 10.9 to 21.8 µM)
CC(=O)Oc1cc(O)c(CC=C(C)C)c(CCc2ccc(O)cc2)c1CC=C(C)C [Compound 7, uralensisol M] | 8 µg/mL (≈ 19.6 µM) | 8 µg/mL (≈ 19.6 µM) | 8 µg/mL (≈ 19.6 µM) | 8 µg/mL (≈ 19.6 µM) | 4 to 8 µg/mL (≈ 9.79 to 19.6 µM)
O=Cc1c(O)cc(O)cc1CCc1ccc(O)cc1 [Compound 8, uralensisol N] | > 16 µg/mL | > 16 µg/mL | > 16 µg/mL | > 16 µg/mL | –
CC(C)=CCc1cc(CCc2cc(O)cc(O)c2CC=C(C)C)ccc1O [Compound 9, uralensisol 0] | 8 µg/mL (≈ 21.8 µM) | 8 µg/mL (≈ 21.8 µM) | 8 µg/mL (≈ 21.8 µM) | 8 µg/mL (≈ 21.8 µM) | 4 to 8 µg/mL (≈ 10.9 to 21.8 µM)
C[C@H]1COc2c(N3CCN(C)CC3)c(F)cc3c(=O)c(C(=O)O)cn1c23 [LVX, levofloxacin, reference compound] | 0.25 µg/mL (≈ 0.692 µM) | 8 µg/mL (≈ 22.1 µM) | 0.25 µg/mL (≈ 0.692 µM) | 8 µg/mL (≈ 22.1 µM) | –
Cc1ncc([N+](=O)[O-])n1CCO [MTZ, metronidazole, reference compound] | 1 µg/mL (≈ 5.84 µM) | 32 µg/mL (≈ 187 µM) | 2 µg/mL (≈ 11.7 µM) | 16 µg/mL (≈ 93.5 µM) | –
